Results reported in ChEMBL document CHEMBL1201862, “PubChem BioAssay data set” (2004).
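The compound was tested at five concentrations on cells cultured in 96-well plates, with a 48-hour exposure period. Here, GI50 denotes the concentration required for 50% inhibition of growth.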 Calls of active or inactive are those of the source. Rule as the data show it: active = GI50 up to about 1.1 µM and inactive = higher.

Legend:
Test in all cases: NCI anticancer screen, dose series, 48 h
786-0 = tested on: 786-0
A549 = tested on: A549
BT-549 = tested on: BT-549
HOP-62 = tested on: HOP-62
HOP-92 = tested on: HOP-92
IGROV-1 = tested on: IGROV-1
K562 = tested on: K562
MDA-MB-435 = tested on: MDA-MB-435
MDA-N = tested on: MDA-N
Malme-3M = tested on: Malme-3M
NCI-H522 = tested on: NCI-H522
PC-3 = tested on: PC-3
RPMI-8226 = tested on: RPMI-8226
UACC-62 = tested on: UACC-62
SR = tested on: SR
DLD-1 = tested on: DLD-1
DMS-114 = tested on: DMS-114
HOP-18 = tested on: HOP-18
SNB-78 = tested on: SNB-78
XF498 = tested on: XF498

Compound | GI50 (786-0) | GI50 (A549) | GI50 (BT-549) | GI50 (HOP-62) | GI50 (HOP-92) | GI50 (IGROV-1) | GI50 (K562) | GI50 (MDA-MB-435) | GI50 (MDA-N) | GI50 (Malme-3M) | GI50 (NCI-H522) | GI50 (PC-3) | GI50 (RPMI-8226) | GI50 (UACC-62) | GI50 (SR) | GI50 (DLD-1) | GI50 (DMS-114) | GI50 (HOP-18) | GI50 (SNB-78) | GI50 (XF498)
CCOC(=O)c1cc(C2CCN(Cc3ccccc3)C2=S)c(C(=O)C=[N+]=[N-])[nH]1 (stereo not drawn) | 28.1 µM (inactive) | 26.4 µM (inactive) | 26.9 µM (inactive) | 51.4 µM (inactive) | 21.3 µM (inactive) | 24.7 µM (inactive) | 64.6 µM (inactive) | 40.1 µM (inactive) | 21.1 µM (inactive) | 28.7 µM (inactive) | 20.7 µM (inactive) | 27.4 µM (inactive) | 45.9 µM (inactive) | 18.3 µM (inactive) | – | – | – | – | – | –
CCOC(=O)NC(OCc1ccccc1)(C(=O)OC)C(F)(F)F (stereo not drawn) | – | > 100 µM (inactive) | > 100 µM (inactive) | – | > 100 µM (inactive) | > 100 µM (inactive) | > 100 µM (inactive) | > 100 µM (inactive) | > 100 µM (inactive) | – | > 100 µM (inactive) | > 100 µM (inactive) | > 100 µM (inactive) | > 100 µM (inactive) | > 100 µM (inactive) | – | – | – | – | –
C/C=C/C1=CC(=O)C(O)C1O (stereo not drawn) | – | 29 µM (inactive) | – | 47.6 µM (inactive) | 27.2 µM (inactive) | 35.6 µM (inactive) | 30.6 µM (inactive) | – | – | 27.1 µM (inactive) | 5.86 µM (inactive) | – | 22.1 µM (inactive) | 26.6 µM (inactive) | – | 30.4 µM (inactive) | 22 µM (inactive) | 12.4 µM (inactive) | 57.8 µM (inactive) | 18.5 µM (inactive)
N#CCc1c(F)c(F)c(F)c(F)c1F | > 100 µM (inactive) | > 100 µM (inactive) | > 100 µM (inactive) | > 100 µM (inactive) | – | > 100 µM (inactive) | > 100 µM (inactive) | > 100 µM (inactive) | > 100 µM (inactive) | > 100 µM (inactive) | > 100 µM (inactive) | > 100 µM (inactive) | > 100 µM (inactive) | > 100 µM (inactive) | > 100 µM (inactive) | – | – | – | – | –
Cc1ccc(S(=O)(=O)N2c3ccccc3[C@H]3CCc4c([nH]c5ccccc45)[C@H]32)cc1 | – | > 100 µM (inactive) | > 100 µM (inactive) | 84.9 µM (inactive) | > 100 µM (inactive) | 0.789 µM (active) | 23.4 µM (inactive) | 48.3 µM (inactive) | 30 µM (inactive) | – | – | > 100 µM (inactive) | 29.2 µM (inactive) | > 100 µM (inactive) | – | – | – | – | – | –
CC1CN=C(N(C(=O)Nc2ccccc2)C2CCCCC2)S1 (stereo not drawn) | 17.3 µM (inactive) | 16.7 µM (inactive) | – | 41.2 µM (inactive) | – | 17.8 µM (inactive) | 22.5 µM (inactive) | – | 15.6 µM (inactive) | 16.3 µM (inactive) | – | 15.5 µM (inactive) | 18.8 µM (inactive) | – | 15.9 µM (inactive) | – | – | – | – | –
O=C(Nc1c(C(=O)NC2CCCCC2)[nH]c(=O)[nH]c1=O)c1ccc(Cl)cc1 | – | > 100 µM (inactive) | – | > 100 µM (inactive) | > 100 µM (inactive) | > 100 µM (inactive) | > 100 µM (inactive) | – | – | > 100 µM (inactive) | 44.3 µM (inactive) | – | > 100 µM (inactive) | > 100 µM (inactive) | > 100 µM (inactive) | > 100 µM (inactive) | > 100 µM (inactive) | > 100 µM (inactive) | – | > 100 µM (inactive)
COC(=O)C(C/C=C(\C)c1ccc(Cl)cc1)C(C)=O (stereo not drawn) | – | 31 µM (inactive) | – | > 56 µM (inactive) | 19.5 µM (inactive) | 53.6 µM (inactive) | 36.4 µM (inactive) | – | – | 40.3 µM (inactive) | 22.5 µM (inactive) | – | 24.2 µM (inactive) | 38.5 µM (inactive) | – | 57.1 µM (inactive) | 19.9 µM (inactive) | 40.3 µM (inactive) | > 56.8 µM (inactive) | > 65.8 µM (inactive)
COc1ccc(/N=C(\C)c2ccncc2)cc1 | > 100 µM (inactive) | 47.2 µM (inactive) | 64 µM (inactive) | > 100 µM (inactive) | > 100 µM (inactive) | > 100 µM (inactive) | > 100 µM (inactive) | 26.9 µM (inactive) | > 100 µM (inactive) | > 100 µM (inactive) | > 100 µM (inactive) | > 100 µM (inactive) | 16.7 µM (inactive) | > 100 µM (inactive) | – | – | – | – | – | –
O=C(c1nc2ccc(Cl)cc2nc1O)C(O)c1ccccc1 (stereo not drawn) | > 100 µM (inactive) | 35.2 µM (inactive) | – | > 100 µM (inactive) | 18.2 µM (inactive) | > 100 µM (inactive) | 21.8 µM (inactive) | – | – | > 100 µM (inactive) | 10.9 µM (inactive) | – | 3.85 µM (inactive) | 96.8 µM (inactive) | 13 µM (inactive) | > 100 µM (inactive) | 56.5 µM (inactive) | – | > 100 µM (inactive) | –
Cc1csc(/N=C(/NCCN2CCOCC2)Nc2nc(C)cs2)n1 | – | > 100 µM (inactive) | – | > 100 µM (inactive) | > 88.9 µM (inactive) | > 100 µM (inactive) | > 100 µM (inactive) | – | – | > 100 µM (inactive) | > 100 µM (inactive) | – | > 100 µM (inactive) | > 100 µM (inactive) | – | > 100 µM (inactive) | > 100 µM (inactive) | > 100 µM (inactive) | > 100 µM (inactive) | > 100 µM (inactive)
COC(=O)C(=O)Cc1nc2ccccc2o1 | – | – | – | > 100 µM (inactive) | – | – | > 100 µM (inactive) | – | – | > 100 µM (inactive) | > 100 µM (inactive) | – | – | > 100 µM (inactive) | > 100 µM (inactive) | > 100 µM (inactive) | > 100 µM (inactive) | – | > 100 µM (inactive) | > 100 µM (inactive)
Cc1ccc(NC(=O)C(Cc2c[nH]c3ccccc23)NC(=O)Oc2ccccc2)cc1C (stereo not drawn) | – | 66.4 µM (inactive) | 30.6 µM (inactive) | > 100 µM (inactive) | 27.7 µM (inactive) | 30.5 µM (inactive) | 59 µM (inactive) | 65.2 µM (inactive) | 55.8 µM (inactive) | 14.3 µM (inactive) | > 100 µM (inactive) | 37.3 µM (inactive) | 26.7 µM (inactive) | 54.7 µM (inactive) | – | – | – | – | – | –
COc1ccc(-c2c3c(nc4nc(SCCc5ccccc5)nc(N)c24)CCCC3)cc1OC | – | > 100 µM (inactive) | > 100 µM (inactive) | 90.8 µM (inactive) | – | > 100 µM (inactive) | > 100 µM (inactive) | > 100 µM (inactive) | > 100 µM (inactive) | > 100 µM (inactive) | – | > 100 µM (inactive) | > 100 µM (inactive) | > 100 µM (inactive) | > 100 µM (inactive) | – | – | – | – | –
O=C1c2ccccc2C(=O)N1/N=C1/SC(=N\c2ccccc2)/C(=N/c2ccccc2)N1c1ccccc1 | 11.4 µM (inactive) | > 21 µM (inactive) | > 48.4 µM (inactive) | > 45.6 µM (inactive) | > 27.9 µM (inactive) | > 78.7 µM (inactive) | > 60 µM (inactive) | > 100 µM (inactive) | – | > 47.3 µM (inactive) | 97.7 µM (inactive) | > 52.6 µM (inactive) | > 21.1 µM (inactive) | > 95.5 µM (inactive) | > 31.6 µM (inactive) | – | – | – | – | –
O=C(O)CN(CC(=O)O)C(C(=O)O)c1ccccc1 (stereo not drawn) | > 100 µM (inactive) | > 100 µM (inactive) | > 100 µM (inactive) | > 100 µM (inactive) | > 100 µM (inactive) | > 100 µM (inactive) | > 100 µM (inactive) | > 100 µM (inactive) | > 100 µM (inactive) | > 100 µM (inactive) | > 100 µM (inactive) | > 100 µM (inactive) | > 100 µM (inactive) | > 100 µM (inactive) | > 100 µM (inactive) | – | – | – | – | –
Cc1cccc(C(C)C)c1NC(=O)/C(Cc1c([N+](=O)[O-])cccc1[N+](=O)[O-])=N/NC(=O)CC#N | > 100 µM (inactive) | > 100 µM (inactive) | – | – | 41.6 µM (inactive) | > 100 µM (inactive) | > 100 µM (inactive) | – | – | > 100 µM (inactive) | > 100 µM (inactive) | – | – | > 100 µM (inactive) | – | > 100 µM (inactive) | > 100 µM (inactive) | > 100 µM (inactive) | – | –
C=CC(C)C1(CCCOCc2ccccc2)C(=S)N2CCC3(CC24CCCC14)OCCO3 (stereo not drawn) | – | 16 µM (inactive) | – | – | – | > 100 µM (inactive) | 4.84 µM (inactive) | – | – | 47.5 µM (inactive) | 7.31 µM (inactive) | – | 2.72 µM (inactive) | > 100 µM (inactive) | – | 54.6 µM (inactive) | 4.97 µM (inactive) | > 100 µM (inactive) | 9.48 µM (inactive) | 3.06 µM (inactive)
Cc1ccc(/N=N/C(=N\NC(=O)c2ccc(C)cc2)c2ccc(N(CCC#N)CCC#N)cc2C)cc1 | – | 34.5 µM (inactive) | – | 34.4 µM (inactive) | 51.3 µM (inactive) | 13.4 µM (inactive) | 35.9 µM (inactive) | 21 µM (inactive) | 29.7 µM (inactive) | – | – | 24 µM (inactive) | 13 µM (inactive) | 22.4 µM (inactive) | 18.7 µM (inactive) | – | – | – | – | –
